The results in this text go back to patent US11484607B2, “PSMA-targeted NIR dyes and their uses” (On Target Laboratories, LLC, priority 2015, dated 2022).

In the experiment the target is T1, PSMA (Homo sapiens, UniProt Q04609).
T1 construct: host or cells: 22Rv1 human prostate cancer cells
Put plainly: Relative binding affinity of DUPA-NIR conjugates with respect to DUPA-FITC on 22Rv1 cells, flow cytometry. The conditions noted are these: for Kd: 1 h at 37° C., 100 nM DUPA-FITC; for affinity for PSMA (in words): in vitro binding affinity data. As for the experimental part:
FIG. 3—Relative binding affinities of DUPA-NIR conjugates 1-9 with respect to DUPA-FITC (14). PSMA-positive 22Rv1 human prostate cancer cells were incubated for 1 h at 37° C. in the presence of 100 nM DUPA-FITC with increasing concentrations of DUPA-NIR conjugates. […] Cell bound fluorescence was assayed as using flow cytometry.
FIG. 6—Relative binding affinities of DUPA-NIR conjugates with aromatic amino acids linkers with respect to DUPA-FITC (14). PSMA-positive 22Rv1 human prostate cancer cells were incubated for 1 h at 37° C. in the presence of 100 nM DUPA-FITC with increasing concentrations of DUPA-NIR conjugates. […] Cell bound fluorescence was assayed as using flow cytometry.
FIG. 3 Relative binding affinities of DUPA-NIR conjugates 1-9 with respect to DUPA-FITC (14). PSMA-positive 22Rv1 human prostate cancer cells were incubated for 1 h at 37° C. in the presence of 100 nM DUPA-FITC with increasing concentrations of DUPA-NIR conjugates. […] Cell bound fluorescence was assayed as using flow cytometry.
in vitro studies. […] PSMA-positive 22Rv1 human prostate cancer cells were incubated for 1 h at 37° C. in the presence of 100 nM DUPA-FITC with increasing concentrations of DUPA-NIR conjugates. […] Cell bound fluorescence was assayed as using flow cytometry.
PSMA-positive 22Rv1 human prostate cancer cells were incubated for 1 h at 37° C. in the presence of 100 nM DUPA-FITC with increasing concentrations of DUPA-NIR conjugates. […] Cell bound fluorescence was assayed as using flow cytometry.
FIG. 24: Relative binding affinities of DUPA-NIR conjugates with respect to DUPA-FITC (14). PSMA-positive 22Rv1 human prostate cancer cells were incubated for 1 h at 37° C. in the presence of 100 nM DUPA-FITC with increasing concentrations of DUPA-NIR conjugates. […] Cell bound fluorescence was assayed as using flow cytometry.
PSMA-positive 22Rv1 human prostate cancer cells were incubated for 1 h at 37° C. in the presence of 100 nM DUPA-FITC with increasing concentrations of DUPA-NIR conjugates. […] Cell bound fluorescence was assayed as using flow cytometry
Cancer cells were incubated for 1 h at 37° C. in the presence of 100 nM DUPA-FITC with increasing concentrations of compound 15. […] Cell bound fluorescence was assayed as using flow cytometry.

The mark [1] stands for this setting: conjugates with variable length spacers.
Setting [2] is: conjugates with aromatic linkers.
[3] abbreviates: Example 5, variably charged NIR dye.

For orientation: Kd means the constant that tells how readily two partners part at equilibrium.

T1 sequence (Q04609 whole entry): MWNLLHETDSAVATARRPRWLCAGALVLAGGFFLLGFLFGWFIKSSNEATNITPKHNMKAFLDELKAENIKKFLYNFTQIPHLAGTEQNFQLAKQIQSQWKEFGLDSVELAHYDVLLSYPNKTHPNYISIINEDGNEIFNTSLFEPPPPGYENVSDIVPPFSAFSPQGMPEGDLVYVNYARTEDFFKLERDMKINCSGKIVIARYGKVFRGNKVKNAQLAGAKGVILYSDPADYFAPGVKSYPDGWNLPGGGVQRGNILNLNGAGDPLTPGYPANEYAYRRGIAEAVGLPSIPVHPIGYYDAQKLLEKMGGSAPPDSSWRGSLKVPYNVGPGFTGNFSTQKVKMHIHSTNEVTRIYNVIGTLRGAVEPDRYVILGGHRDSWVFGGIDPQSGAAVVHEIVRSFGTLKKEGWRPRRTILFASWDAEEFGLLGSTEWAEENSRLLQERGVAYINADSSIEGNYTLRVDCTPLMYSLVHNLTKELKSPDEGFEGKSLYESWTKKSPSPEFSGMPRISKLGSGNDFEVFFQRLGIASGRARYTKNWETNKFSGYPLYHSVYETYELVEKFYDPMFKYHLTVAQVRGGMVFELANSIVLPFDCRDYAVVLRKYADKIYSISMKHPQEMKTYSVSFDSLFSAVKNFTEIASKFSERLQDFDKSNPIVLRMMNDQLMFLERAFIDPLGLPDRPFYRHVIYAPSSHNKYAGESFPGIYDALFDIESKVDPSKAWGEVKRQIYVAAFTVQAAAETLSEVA

In the case of `CC1(C)C(/C=C/C2=C(Oc3ccc(C[C@H](NC(=O)CC[C@H](NC(=O)N[C@@H](CCC(=O)O)C(=O)O)C(=O)O)C(=O)O)cc3)C(=C/C=C3/N(CCCCS(=O)(=O)O)c4ccc(S(=O)(=O)O)cc4C3(C)C)/CCC2)=[N+](CCCCS(=O)(=O)[O-])c2ccc(S(=O)(=O)O)cc21` [Compound 1], the “affinity for PSMA (in words)” value is on record as “low affinity”. The compound also had a dissociation constant Kd under setting [1] of 142 nM.

Turning to `CC1(C)C(/C=C/C2=C(Oc3ccc(CCNC(=O)CC[C@H](NC(=O)N[C@@H](CCC(=O)O)C(=O)O)C(=O)O)cc3)C(=C/C=C3/N(CCCCS(=O)(=O)O)c4ccc(S(=O)(=O)O)cc4C3(C)C)/CCC2)=[N+](CCCCS(=O)(=O)[O-])c2ccc(S(=O)(=O)O)cc21` [Compound 2], the “affinity for PSMA (in words)” value was “low affinity”. In addition, the affinity under setting [1], expressed as Kd, was 113 nM.

With `CC1(C)C(/C=C/C2=C(Oc3ccc(C[C@H](NC(=O)C[C@H](NC(=O)CC[C@H](NC(=O)N[C@@H](CCC(=O)O)C(=O)O)C(=O)O)C(=O)O)C(=O)O)cc3)C(=C/C=C3/N(CCCCS(=O)(=O)O)c4ccc(S(=O)(=O)O)cc4C3(C)C)/CCC2)=[N+](CCCCS(=O)(=O)[O-])c2ccc(S(=O)(=O)O)cc21` [Compound 3], the “affinity for PSMA (in words)” value is “very high affinity”. Moreover, the Kd under setting [1] worked out at 9.71 nM.

Turning to `CC1(C)C(/C=C/C2=C(Oc3ccc(C[C@H](NC(=O)CCCCCCCNC(=O)[C@H](Cc4ccccc4)NC(=O)CC[C@H](NC(=O)N[C@@H](CCC(=O)O)C(=O)O)C(=O)O)C(=O)O)cc3)C(=C/C=C3/N(CCCCS(=O)(=O)O)c4ccc(S(=O)(=O)O)cc4C3(C)C)/CCC2)=[N+](CCCCS(=O)(=O)[O-])c2ccc(S(=O)(=O)O)cc21` [Compound 5], the “affinity for PSMA (in words)” value is listed as “very high affinity”. This compound also showed a Kd under setting [1] of 12.2 nM.

On to `CC1(C)C(/C=C/C2=C(Oc3ccc(C[C@H](NC(=O)[C@H](Cc4ccccc4)NC(=O)[C@H](Cc4ccccc4)NC(=O)CCCCCCCNC(=O)C[C@H](NC(=O)CC[C@H](NC(=O)N[C@@H](CCC(=O)O)C(=O)O)C(=O)O)C(=O)O)C(=O)O)cc3)C(=C/C=C3/N(CCCCS(=O)(=O)O)c4ccc(S(=O)(=O)O)cc4C3(C)C)/CCC2)=[N+](CCCCS(=O)(=O)[O-])c2ccc(S(=O)(=O)O)cc21` [Compound 8], for which, under setting [1], the Kd was 23.2 nM.

The compound `CC1(C)C(/C=C/C2=C(Oc3ccc(C[C@H](NC(=O)CCCCCCCNC(=O)CCCCCCCNC(=O)CC[C@H](NC(=O)N[C@@H](CCC(=O)O)C(=O)O)C(=O)O)C(=O)O)cc3)C(=C/C=C3/N(CCCCS(=O)(=O)O)c4ccc(S(=O)(=O)O)cc4C3(C)C)/CCC2)=[N+](CCCCS(=O)(=O)[O-])c2ccc(S(=O)(=O)O)cc21` [Compound 9] gave a Kd under setting [1] of 17.2 nM. This Kd and that of the compound before are within 1.5-fold of each other.

Take `CC1(C)C(/C=C/C2=C(SC[C@H](NC(=O)[C@H](Cc3ccccc3)NC(=O)[C@H](Cc3ccccc3)NC(=O)CCCCCCCNC(=O)CC[C@H](NC(=O)N[C@@H](CCC(=O)O)C(=O)O)C(=O)O)C(=O)O)C(=C/C=C3/N(CCCCS(=O)(=O)O)c4ccc(S(=O)(=O)O)cc4C3(C)C)/CCC2)=[N+](CCCCS(=O)(=O)[O-])c2ccc(S(=O)(=O)O)cc21` [Compound 27]: the Kd under setting [2] amounted to 22.2 nM.

As to `CC1(C)C(/C=C/C2=C(Oc3ccc(C[C@H](NC(=O)[C@H](Cc4c[nH]cn4)NC(=O)CCCCCCCNC(=O)CC[C@H](NC(=O)N[C@@H](CCC(=O)O)C(=O)O)C(=O)O)C(=O)O)cc3)C(=C/C=C3/N(CCCCS(=O)(=O)O)c4ccc(S(=O)(=O)O)cc4C3(C)C)/CCC2)=[N+](CCCCS(=O)(=O)[O-])c2ccc(S(=O)(=O)O)cc21` [Compound 32], the Kd under setting [2] turned out to be 32 nM.

Take `CC1(C)C(/C=C/C2=C(Oc3ccc(C[C@H](NC(=O)[C@H](Cc4c[nH]c5ccccc45)NC(=O)CCCCCCCNC(=O)CC[C@H](NC(=O)N[C@@H](CCC(=O)O)C(=O)O)C(=O)O)C(=O)O)cc3)C(=C/C=C3/N(CCCCS(=O)(=O)O)c4ccc(S(=O)(=O)O)cc4C3(C)C)/CCC2)=[N+](CCCCS(=O)(=O)[O-])c2ccc(S(=O)(=O)O)cc21` [Compound 33]: under setting [2], the Kd came out at 16 nM.

`CC1(C)C(/C=C/C2=C(Oc3ccc(C[C@H](NC(=O)CCCCCCCNC(=O)[C@H](Cc4ccccc4)NC(=O)[C@H](Cc4ccccc4)NC(=O)CCCCCCCNC(=O)CC[C@H](NC(=O)N[C@@H](CCC(=O)O)C(=O)O)C(=O)O)C(=O)O)cc3)C(=C/C=C3/N(CCCCS(=O)(=O)O)c4ccc(S(=O)(=O)O)cc4C3(C)C)/CCC2)=[N+](CCCCS(=O)(=O)[O-])c2ccc(S(=O)(=O)O)cc21` [Compound 34]: the Kd under setting [2] stood at 34.9 nM.

The compound `CC1(C)C(/C=C/C2=C(Oc3ccc(C[C@H](NC(=O)[C@H](Cc4ccccc4)NC(=O)CCCCCCCNC(=O)CC[C@H](NC(=O)N[C@@H](CCC(=O)O)C(=O)O)C(=O)O)C(=O)O)cc3)C(=C/C=C3/N(CCCCS(=O)(=O)O)c4ccccc4C3(C)C)/CCC2)=[N+](CCCCS(=O)(=O)[O-])c2ccccc21` [Compound 54] yielded a Kd under setting [3] of 2.6 nM.

Take `CN1/C(=C/C=C2\CCCC(/C=C/C3=[N+](C)c4ccccc4C3(C)C)=C2Oc2ccc(C[C@H](NC(=O)[C@H](Cc3ccccc3)NC(=O)CCCCCCCNC(=O)CC[C@H](NC(=O)N[C@@H](CCC(=O)O)C(=O)O)C(=O)O)C(=O)O)cc2)C(C)(C)c2ccccc21` [Compound 55]: the “affinity for PSMA (in words)” value is given as “very high affinity”. Binding under setting [3] was put at a Kd of 7.3 nM.

`CN1/C(=C/C=C2\CCCC(/C=C/C3=[N+](C)c4ccc(S(=O)(=O)[O-])cc4C3(C)C)=C2Oc2ccc(C[C@H](NC(=O)[C@H](Cc3ccccc3)NC(=O)CCCCCCCNC(=O)CC[C@H](NC(=O)N[C@@H](CCC(=O)O)C(=O)O)C(=O)O)C(=O)O)cc2)C(C)(C)c2cc(S(=O)(=O)O)ccc21` [Compound 56]: the “affinity for PSMA (in words)” value is “very high affinity”. Also, under setting [3], binding was characterised by a dissociation constant (Kd) of 3.7 nM.

Turning to `CC1(C)C(/C=C/C2=C(Oc3ccc(C[C@H](NC(=O)[C@H](Cc4ccccc4)NC(=O)CCCCCCCNC(=O)CC[C@H](NC(=O)N[C@@H](CCC(=O)O)C(=O)O)C(=O)O)C(=O)O)cc3)C(=C/C=C3/N(CCC[N+](C)(C)C)c4ccccc4C3(C)C)/CCC2)=[N+](CCC[N+](C)(C)C)c2ccccc21` [Compound 59], under setting [3], the Kd is 60.9 nM.

`CC1(C)C(/C=C/C2=C(Oc3ccc(C[C@H](NC(=O)[C@H](Cc4ccccc4)NC(=O)CCCCCCCNC(=O)CC[C@H](NC(=O)N[C@@H](CCC(=O)O)C(=O)O)C(=O)O)C(=O)O)cc3)C(=C/C=C3/N(CCC[N+](C)(C)C)c4ccc(S(=O)(=O)O)cc4C3(C)C)/CCC2)=[N+](CCC[N+](C)(C)C)c2ccc(S(=O)(=O)O)cc21` [Compound 60] returned a Kd under setting [3] of 5.4 nM.

As for `CC1(C)C(=CC=C2CCOC(C=CC3=[N+](CCCCS(=O)(=O)[O-])c4ccc(S(=O)(=O)O)cc4C3(C)C)=C2c2ccc(C(=O)NCCNC(=O)C(Cc3ccccc3)NC(=O)CCCCCCCNC(=O)CCC(NC(=O)NC(CCC(=O)O)C(=O)O)C(=O)O)cc2)N(CCCCS(=O)(=O)O)c2ccc(S(=O)(=O)O)cc21` (stereo not drawn) [Compound 62], the “affinity for PSMA (in words)” value was “low affinity”.

For the compound `CC1(C)C(=CC=C2CCCC(C=CC3=[N+](CCCCS(=O)(=O)[O-])c4ccccc4C3(C)C)=C2Oc2ccc(CC(NC(=O)C(CCCNC(=N)N)NC(=O)C(Cc3ccccc3)NC(=O)CCCCCCCNC(=O)CCC(NC(=O)NC(CCC(=O)O)C(=O)O)C(=O)O)C(=O)O)cc2)N(CCCCS(=O)(=O)O)c2ccccc21` (stereo not drawn) [Compound 65], the “affinity for PSMA (in words)” value is listed as “low affinity”.

Take `CC1(C)C(=CC=C2CCCC(C=CC3=[N+](CCCCS(=O)(=O)[O-])c4ccccc4C3(C)C)=C2Oc2ccc(CC(NC(=O)C(CCCNC(=N)N)NC(=O)C(CCCNC(=N)N)NC(=O)CCCCCCCNC(=O)CCC(NC(=O)NC(CCC(=O)O)C(=O)O)C(=O)O)C(=O)O)cc2)N(CCCCS(=O)(=O)O)c2ccccc21` (stereo not drawn) [Compound 66]: the “affinity for PSMA (in words)” value is listed as “low affinity”.
